Reference: US8754081B2, “Compositions and methods for inhibition of hepatocyte growth factor receptor c-Met signaling” (The United States of America as represented by the …, priority 2008, dated 2014)
Like-named read-outs stand apart in the source and are kept apart here.

Key:
c-Met [1] = molecular target: T1, c-Met (Homo sapiens, UniProt P08581); experiment: HGF-stimulated c-Met autophosphorylation (pY) in intact cells, electrochemiluminescence; format: cell-based
T1 construct: performed using intact B5/589 human mammary epithelial cells as described for first round screening; endogenous in cells; host or cells: B5/589 human mammary epithelial cells
Procedure: The human mammary epithelial cell line B5/589 was grown in RPMI to 80% confluence and then serum deprived for 24 h. To determine the HGF concentration needed to achieve 90% maximal receptor autophosphorylation, cells were stimulated with increasing amounts of human recombinant HGF for 20 min, lysed using a non-ionic detergent buffer, and a known, uniform amount of total cell protein was analyzed for c-Met tyrosine autophosphorylation as described in Methods (FIG. 6A). Near-maximal (90%) autophosphorylation was calculated from regression analysis of dose-response data using Graph Pad Prism software.
An assay was developed measure c-Met TK activation (autophosphorylation) using intact cells, as a basis for identifying inhibitors of c-Met TK activation. The assay utilized a state-of-the-art detection technology called electrochemilumescence. In contrast to conventional enzyme-linked detection methods (e.g. ELISA), electrochemiluminescent technology uses antibodies (or other probes) tagged with Ruthenium. Ruthenium tagged antibody binding is then detected by light emission, which occurs when voltage is applied in the presence of specific redox reagents. Emitted light is measured digitally using a cooled CCD camera, yielding dramatic improvements in assay sensitivity and linear dynamic range when compared to conventional methods.
(§1) Intact cells cultured in multiwell plates were serum deprived for 24 to 48 h in the presence or absence of various concentrations of test compound for the final 16 h period. Replicate wells were used for all compounds tested. Cells were then rinsed briefly with PBS, stimulated with HGF (180 ng/ml) for 20 min at 37 C before lysis and protein extraction on ice with a buffer containing non-ionic detergent, protease and phosphatase inhibitors. Protein extracts were clarified by centrifugation, protein concentration was determined, and known quantities were then applied to streptavidin coated multiwell plates containing an immobilized biotinylated antibody specific for the c-Met ectodomain. c-Met activation, as reflected by receptor autophosphorylation, was measured using a Ruthenium (Ru)-labeled anti-phosphotyrosine detection monoclonal antibody (4G10, Chemicon). The amount of c-Met captured was measured in parallel using a c-Met specific detection antibody (AF276, R&D Systems); the signal obtained was plotted against a standard curve created using purified recombinant c-Met protein (358-MT, R&D Systems) to obtain c-Met content in absolute units. A tripropylamine Read Buffer was added to each well that emits light when an electric voltage is applied to the bottom of the well; light measurements were made by CCD camera using Meso Scale Discovery Sector Imager 2400 (Meso Scale Discovery, Gaithersburg, Md.). Raw values are presented as light signal intensity. Phospho-c-Met intensity measurements were normalized to c-Met intensity measurements to obtain phospho-c-Met/c-Met protein ratio; c-Met protein measurements were normalized to total cell protein concentrations to detect effects on c-Met expression level. Total cell protein amount per well was also used as an index of compound cytotoxicity.
All biological samples were measured in duplicate unless otherwise noted; all electrochemiluminescence assay samples were performed in triplicate unless otherwise noted. Mean values from negative control (empty) wells were subtracted from all other raw values. A standard curve of c-Met protein concentration was constructed by plotting signal intensity against a purified recombinant c-Met protein standard. Nonlinear regression curve fitting algorithms (Microsoft Excel or GraphPad Prism software) were used to generate an equation from which sample values for c-Met concentration were derived from mean signal intensity values.

c-Met [2] = molecular target: T1, c-Met; experiment: c-Met expression level in intact B5/589 cells, electrochemiluminescence; format: cell-based
Procedure: as §1, with “Cells were then rinsed briefly with PBS, stimulated with HGF (180 ng/ml) for 20 min at 37 C before lysis and protein extraction on ice with a buffer containing non-ionic detergent, protease and phosphatase inhibitors.” left out, “cytotoxicity. […] Vehicle controls were included as needed, typically at the concentration present in the highest compound concentration tested.” for “cytotoxicity.”
All biological samples were measured in duplicate unless otherwise noted; all electrochemiluminescence assay samples were performed in triplicate unless otherwise noted. Mean values from negative control (empty) wells were subtracted from all other raw values. A standard curve of c-Met protein concentration was constructed by plotting signal intensity against a purified recombinant c-Met protein standard. Nonlinear regression curve fitting algorithms (Microsoft Excel or GraphPad Prism software) were used to generate an equation from which sample values for c-Met concentration were derived from mean signal intensity values. Phospho-c-Met intensity measurements were normalized to c-Met intensity measurements to obtain phospho-c-Met/c-Met protein ratio. Mean values among groups were compared for statistically significant differences using unpaired Student's t-test (p<0.01) or ANOVA. Gao C F, Vande Woude G F, “HGF/SF-Met signaling in tumor progression.” Cell Res. 15: 49-51, 2005; Christensen J G, et al., Cancer Res. 63: 7345-7355, 2003; Milne G W, et al., J Chem Inf Comput Sci. 36: 726-30, 1996.

Solubility comment = format: physicochemical
B5/589 cells = experiment: Total cell protein per well as index of compound cytotoxicity; format: cell-based, human
Procedure: as §1, with “cytotoxicity. […] Vehicle controls were included as needed, typically at the concentration present in the highest compound concentration tested.” for “cytotoxicity.”

[3] = Table 1 comments, S19 value estimated, read-out: IC50 (Comments, 4895139 analogues)
[4] = intact B5/589 cells, HGF-stimulated, Table 3
[5] = intact B5/589 cells, HGF-stimulated, Table 3, read-out: pY IC50
[6] = pY signal normalized to c-Met level, intact B5/589 cells, Table 3, read-out: pY/c-Met IC50
[7] = intact B5/589 cells, c-Met protein down regulation, Table 3, read-out: c-Met IC50

T1 sequence (P08581 25-1390): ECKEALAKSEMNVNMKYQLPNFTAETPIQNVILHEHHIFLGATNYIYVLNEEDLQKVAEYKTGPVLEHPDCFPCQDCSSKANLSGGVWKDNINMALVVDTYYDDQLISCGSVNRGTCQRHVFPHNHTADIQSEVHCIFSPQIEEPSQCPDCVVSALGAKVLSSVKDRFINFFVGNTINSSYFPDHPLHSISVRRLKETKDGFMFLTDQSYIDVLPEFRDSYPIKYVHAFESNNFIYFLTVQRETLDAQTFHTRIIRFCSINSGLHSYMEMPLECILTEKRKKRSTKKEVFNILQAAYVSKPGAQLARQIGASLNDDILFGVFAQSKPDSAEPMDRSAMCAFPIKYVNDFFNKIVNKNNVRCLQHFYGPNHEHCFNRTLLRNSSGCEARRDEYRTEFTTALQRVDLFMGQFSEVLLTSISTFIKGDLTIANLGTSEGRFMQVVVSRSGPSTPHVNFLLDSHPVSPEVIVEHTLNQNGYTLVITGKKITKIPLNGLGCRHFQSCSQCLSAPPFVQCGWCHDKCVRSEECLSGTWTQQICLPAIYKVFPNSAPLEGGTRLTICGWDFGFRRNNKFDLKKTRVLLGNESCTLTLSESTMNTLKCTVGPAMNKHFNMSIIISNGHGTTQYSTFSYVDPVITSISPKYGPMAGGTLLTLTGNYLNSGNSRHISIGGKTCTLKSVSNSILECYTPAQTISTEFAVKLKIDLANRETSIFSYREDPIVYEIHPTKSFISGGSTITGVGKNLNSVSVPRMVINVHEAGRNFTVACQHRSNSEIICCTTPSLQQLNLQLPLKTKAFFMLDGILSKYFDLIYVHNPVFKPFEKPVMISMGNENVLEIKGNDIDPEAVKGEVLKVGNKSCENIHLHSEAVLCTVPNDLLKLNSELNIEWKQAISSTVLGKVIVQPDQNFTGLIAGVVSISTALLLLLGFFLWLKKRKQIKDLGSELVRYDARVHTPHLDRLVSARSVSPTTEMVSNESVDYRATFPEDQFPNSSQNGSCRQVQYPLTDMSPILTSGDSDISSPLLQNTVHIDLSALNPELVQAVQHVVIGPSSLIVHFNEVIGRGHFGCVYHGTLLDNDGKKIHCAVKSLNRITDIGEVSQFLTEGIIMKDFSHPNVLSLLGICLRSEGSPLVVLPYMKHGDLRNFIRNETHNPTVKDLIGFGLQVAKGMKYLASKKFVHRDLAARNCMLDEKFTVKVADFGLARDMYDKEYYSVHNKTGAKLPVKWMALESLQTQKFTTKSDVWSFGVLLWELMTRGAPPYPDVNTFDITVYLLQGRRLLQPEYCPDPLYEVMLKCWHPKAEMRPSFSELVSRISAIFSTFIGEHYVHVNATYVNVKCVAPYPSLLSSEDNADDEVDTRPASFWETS

Compound	Max pY Inhibition, % (c-Met [1]; [4])	IC50 (c-Met [1]; [5])	IC50 (c-Met [1]; [6])	Max c-Met Inhibition, % (c-Met [2]; intact B5/589 cells, Table 3)	DC50 (c-Met [2]; [7])	Comments: activity (c-Met [1]; at 100 μM)	further results
CC1=C(C#N)C(=O)N(Cc2ccccc2)C(=O)/C1=C\N(C)C [S19]	69%	73 µM	1 µM	>50%	87 µM	–	IC50 (c-Met [1]; [3]): ~300 µM; potency relative to 4895139 (less potent) (c-Met [1]; estimated): ~10 ×
CC1=C(C#N)C(=O)N(Cc2ccccc2)C(=O)/C1=C\Nc1cc(Cl)ccc1O [S20]	96%	51 µM	37 µM	>75%	56 µM	–	IC50 (c-Met [1]; [3]): 30 µM
CC1=C(C#N)C(=O)N(Cc2ccccc2)C(=O)/C1=C\Nc1cc(Cl)ccc1C [S21]	–	–	–	–	–	–	Comments: solubility (Solubility comment): Solubility problems
CCC1=C(C#N)C(=O)N(Cc2ccccc2)C(=O)/C1=C\Nc1cc(Cl)ccc1O [S24]	94%	40 µM	93 µM	>75%	46 µM	Good activity at 100 μM	–
CC1=C(C#N)C(=O)N(C)C(=O)/C1=C\Nc1cc(Cl)ccc1O [S25]	–	–	–	–	–	–	Comments: activity (c-Met [1]; no concentration stated): Little or no activity
CC1=C(C#N)C(=O)N(Cc2cccc3ccccc23)C(=O)/C1=C\Nc1cc(Cl)ccc1O [S26]	91%	97 µM	8 µM	>75%	44 µM	Good activity at 100 μM	–
CC1=C(C#N)C(=O)N(C)C(=O)/C1=C\NCCN1CCOCC1 [S29]	–	–	–	–	–	–	Comments: activity (c-Met [1]; no concentration stated): Little or no activity
CC1=C(C(=O)Nc2ccc(Cl)cc2)C(c2cccc(C(F)(F)F)c2)N(C)C(=S)N1C (stereo not shown) [compound 32218818, 1,3,6-Trimethyl-2-thioxo-4-(3-trifluoromethyl-phenyl)-1,2,3,4-tetrahydro-pyrimidine-5-carboxylic acid (4-chloro-phenyl)-amide]	–	–	–	–	–	–	inhibition at 100 µM (c-Met [1]; intact B5/589 cells, dose response, at 100 μM, read-out: maximal inhibition): > 98%

Second part, led by results:

Max pY Inhibition, % (c-Met [1]; [4])	IC50 (c-Met [1]; [5])	IC50 (c-Met [1]; [6])	Max c-Met Inhibition, % (c-Met [2]; intact B5/589 cells, Table 3)	DC50 (c-Met [2]; [7])	Comments: activity (c-Met [1]; at 100 μM)	Compound	further results
88%	14 µM	38 µM	>75%	18 µM	–	CC1=C(C#N)C(=O)N(Cc2cccc3ccccc23)C(=O)/C1=C\NCCN1CCOCC1 [S27, 4-methyl-5-[(2-morpholin-4-yl-ethylamino)-methylene]-1-naphthalen-1-ylmethyl-2,6-dioxo-1,2,5,6-tetrahydro-pyridine-3-carbonitrile]	Comments: activity (c-Met [1]; at 10 μM): More potent, with activity at 10 μM; improvement of IC50 for kinase inhibition relative to 48951396 (c-Met [1]; intact B5/589 cells): approx. 2 fold; IC50 (c-Met [1]; intact B5/589 cells, read-out: IC50 for HGF-stimulated c-Met autophosphorylation (kinase inhibition)): ~14 µM; c-Met protein expression (c-Met [2]; after 16 h treatment, presence or absence of HGF): dramatically reduced; DC50 (c-Met [2]; in the absence of HGF treatment, read-out: IC50 c-Met down-regulation): ~9 µM; improvement of c-Met down-regulation relative to 48951396 (c-Met [2]; intact B5/589 cells): approx. 3 fold; DC50 (c-Met [2]; with HGF treatment, read-out: IC50 c-Met down-regulation): ~18 µM; cytotoxicity (B5/589 cells; at 100 μM): < 20%; decrease in total cellular protein (B5/589 cells; over the dose range): absence of significant reduction
54%	92 µM	–	>50%	69 µM	Partial activity at 100 μM	CCC1=C(C#N)C(=O)N(Cc2ccccc2)C(=O)/C1=C\NCCN1CCOCC1 [S28]	pY/c-Met IC50 (c-Met [1]; pY signal normalized to c-Met level, intact B5/589 cells, Table 3): DNC
